Measurements published in publication PMC11074101 (Cell Discovery, 2024).

How the values were obtained:
Assay type in all cases: cell-based
MCHR1 WT = molecular target: T1, MCHR1 WT (Homo sapiens, UniProt Q99705); assay: GloSensor cAMP assay, MCHR1 WT (Gαi); conditions: HEK293, GloSensor cAMP, normalized by WT receptor, mean ± S.E.M., n = 3 in triplicate
T1 construct: expressed in transfected cells; host or cells: HEK293
Excerpt: (§1) The gene sequences encoding human MCHR1 (residues 70‒405) and MCHR2 (residues 1‒331, with L256^6.40Y mutation) were subcloned into pFastBac vector (Invitrogen) with an N-terminal haemagglutinin signal peptide (HA) and a thermostabilized BRIL fusion, followed by a C-terminal 15-amino acid linker, a LgBiT subunit and two MBPs to facilitate receptor expression and stability. The Gαi construct was designed with dominant-negative mutations S47N, G203A, A326S, and E245A to decrease the affinity of nucleotide-binding and stable Gαβγ complex. The mini-Gαq construct was designed with the C-terminal α-helix (αH5) of Gαq, which is critical for G protein coupling selectivity. The core of the construct, known as the Ras domain, is derived from Gαs. This design choice was made to enable the binding of the nanobody Nb35, which stabilizes the complex for cryo-EM analysis. […] Rat Gβ1 was constructed with a N-terminal 16× His-tag for purification and a C-terminal HiBiT to form a NanoBiT with LgBiT. […] The wild-type and mutants of MCHR1 and MCHR2 were constructed into the pcDNA6.0 vector […] for functional assays.
(§2) GloSensor cAMP assay was used to detect the downstream Gαi signal of MCHR1 using GloSensor cAMP Reagent (Promega).

MCHR1 F161(2.53)A = molecular target: T2, MCHR1 F161(2.53)A (Homo sapiens, UniProt Q99705, F92A); assay: GloSensor cAMP assay, MCHR1 F161A; conditions: HEK293, mean ± S.E.M., n = 3 in triplicate
T2 construct: expressed in transfected cells; host or cells: HEK293
Excerpt: as §1, §2

MCHR1 Q171(2.63)A = molecular target: T3, MCHR1 Q171(2.63)A (Homo sapiens, UniProt Q99705, Q102A); assay: GloSensor cAMP assay, MCHR1 Q171A; conditions: HEK293, mean ± S.E.M., n = 3 in triplicate
T3 construct: expressed in transfected cells; host or cells: HEK293
Excerpt: as §1, §2

MCHR1 L172(2.64)A = molecular target: T4, MCHR1 L172(2.64)A (Homo sapiens, UniProt Q99705, L103A); assay: GloSensor cAMP assay, MCHR1 L172A; conditions: HEK293, mean ± S.E.M., n = 3 in triplicate
T4 construct: expressed in transfected cells; host or cells: HEK293
Excerpt: as §1, §2

MCHR1 D192(3.32)A = molecular target: T5, MCHR1 D192(3.32)A (Homo sapiens, UniProt Q99705, D123A); assay: GloSensor cAMP assay, MCHR1 D192A; conditions: HEK293, mean ± S.E.M., n = 3 in triplicate
T5 construct: expressed in transfected cells; host or cells: HEK293
Excerpt: as §1, §2

MCHR1 Q196(3.36)A = molecular target: T6, MCHR1 Q196(3.36)A (Homo sapiens, UniProt Q99705, Q127A); assay: GloSensor cAMP assay, MCHR1 Q196A; conditions: HEK293, mean ± S.E.M., n = 3 in triplicate
T6 construct: expressed in transfected cells; host or cells: HEK293
Excerpt: as §1, §2

MCHR1 I254(ECL2)A = molecular target: T7, MCHR1 I254(ECL2)A (Homo sapiens, UniProt Q99705, I185A); assay: GloSensor cAMP assay, MCHR1 I254A; conditions: HEK293, mean ± S.E.M., n = 3 in triplicate
T7 construct: expressed in transfected cells; host or cells: HEK293
Excerpt: as §1, §2

MCHR1 F256(ECL2)A = molecular target: T8, MCHR1 F256(ECL2)A (Homo sapiens, UniProt Q99705, F187A); assay: GloSensor cAMP assay, MCHR1 F256A; conditions: HEK293, mean ± S.E.M., n = 3 in triplicate
T8 construct: expressed in transfected cells; host or cells: HEK293
Excerpt: as §1, §2

MCHR1 I265(45.52)A = molecular target: T9, MCHR1 I265(45.52)A (Homo sapiens, UniProt Q99705, I196A); assay: GloSensor cAMP assay, MCHR1 I265A; conditions: HEK293, mean ± S.E.M., n = 3 in triplicate
T9 construct: expressed in transfected cells; host or cells: HEK293
Excerpt: as §1, §2

MCHR1 Y341(6.51)A = molecular target: T10, MCHR1 Y341(6.51)A (Homo sapiens, UniProt Q99705, Y272A); assay: GloSensor cAMP assay, MCHR1 Y341A; conditions: HEK293, mean ± S.E.M., n = 3 in triplicate
T10 construct: expressed in transfected cells; host or cells: HEK293
Excerpt: as §1, §2

MCHR1 P354(ECL3)A = molecular target: T11, MCHR1 P354(ECL3)A (Homo sapiens, UniProt Q99705, P285A); assay: GloSensor cAMP assay, MCHR1 P354A; conditions: HEK293, mean ± S.E.M., n = 3 in triplicate
T11 construct: expressed in transfected cells; host or cells: HEK293
Excerpt: as §1, §2

MCHR1 Y362(7.35)A = molecular target: T12, MCHR1 Y362(7.35)A (Homo sapiens, UniProt Q99705, Y293A); assay: GloSensor cAMP assay, MCHR1 Y362A; conditions: HEK293, mean ± S.E.M., n = 3 in triplicate
T12 construct: expressed in transfected cells; host or cells: HEK293
Excerpt: as §1, §2

MCHR1 I366(7.39)A = molecular target: T13, MCHR1 I366(7.39)A (Homo sapiens, UniProt Q99705, I297A); assay: GloSensor cAMP assay, MCHR1 I366A; conditions: HEK293, mean ± S.E.M., n = 3 in triplicate
T13 construct: expressed in transfected cells; host or cells: HEK293
Excerpt: as §1, §2

MCHR1 Y370(7.42)A = molecular target: T14, MCHR1 Y370(7.42)A (Homo sapiens, UniProt Q99705, Y301A); assay: GloSensor cAMP assay, MCHR1 Y370A; conditions: HEK293, mean ± S.E.M., n = 3 in triplicate
T14 construct: expressed in transfected cells; host or cells: HEK293
Excerpt: (§3) The gene sequences encoding human MCHR1 (residues 70‒405) and MCHR2 (residues 1‒331, with L256^6.40Y mutation) were subcloned into pFastBac vector (Invitrogen) with an N-terminal haemagglutinin signal peptide (HA) and a thermostabilized BRIL fusion, followed by a C-terminal 15-amino acid linker, a LgBiT subunit and two MBPs to facilitate receptor expression and stability. The Gαi construct was designed with dominant-negative mutations S47N, G203A, A326S, and E245A to decrease the affinity of nucleotide-binding and stable Gαβγ complex. The mini-Gαq construct was designed with the C-terminal α-helix (αH5) of Gαq, which is critical for G protein coupling selectivity. The core of the construct, known as the Ras domain, is derived from Gαs. This design choice was made to enable the binding of the nanobody Nb35, which stabilizes the complex for cryo-EM analysis. […]
GloSensor cAMP assay was used to detect the downstream Gαi signal of MCHR1 using GloSensor cAMP Reagent (Promega). […] The sample mixtures were immediately measured with an EnVision multi-plate reader (PerkinElmer).
(§4) Concentration–response curves were evaluated with a three-parameter logistic equation. The significance was determined with one-way ANOVA with Tukey’s test, and P < 0.05 vs wild type was considered statistically significant.

MCHR2 WT = molecular target: T15, MCHR2 WT (Homo sapiens, UniProt Q969V1); assay: IP-One IP1 accumulation assay, MCHR2 WT (Gαq); conditions: AD293, IP-One HTRF, mean ± S.E.M.
T15 construct: expressed in transfected cells; host or cells: AD293
Excerpt: as §3
(§5) IP1 accumulation assay was applied for the detection of the downstream Gαq signal of MCHR2 using the IP-One HTRF kit (Cisbio). […] Before measurement, the samples were incubated at RT for 30 min and measured with EnVision multi-plate reader (PerkinElmer).
as §4

MCHR2 L89(2.60)A = molecular target: T16, MCHR2 L89(2.60)A (Homo sapiens, UniProt Q969V1, L89A); assay: IP-One IP1 accumulation assay, MCHR2 L89A; conditions: n = 3 in triplicate
T16 construct: expressed in transfected cells; host or cells: AD293
Excerpt: as §3, §5, §4

MCHR2 Q92(2.63)A = molecular target: T17, MCHR2 Q92(2.63)A (Homo sapiens, UniProt Q969V1, Q92A); assay: IP-One IP1 accumulation assay, MCHR2 Q92A; conditions: n = 3 in triplicate
T17 construct: expressed in transfected cells; host or cells: AD293
Excerpt: as §3, §5, §4

MCHR2 W93(2.64)A = molecular target: T18, MCHR2 W93(2.64)A (Homo sapiens, UniProt Q969V1, W93A); assay: IP-One IP1 accumulation assay, MCHR2 W93A; conditions: n = 3 in triplicate
T18 construct: expressed in transfected cells; host or cells: AD293
Excerpt: as §3, §5, §4

MCHR2 G96(ECL1)A = molecular target: T19, MCHR2 G96(ECL1)A (Homo sapiens, UniProt Q969V1, G96A); assay: IP-One IP1 accumulation assay, MCHR2 G96A; conditions: n = 3 in triplicate
T19 construct: expressed in transfected cells; host or cells: AD293
Excerpt: as §3, §5, §4

MCHR2 D113(3.32)A = molecular target: T20, MCHR2 D113(3.32)A (Homo sapiens, UniProt Q969V1, D113A); assay: IP-One IP1 accumulation assay, MCHR2 D113A; conditions: n = 3 in triplicate
T20 construct: expressed in transfected cells; host or cells: AD293
Excerpt: as §3, §5, §4

MCHR2 Q117(3.36)A = molecular target: T21, MCHR2 Q117(3.36)A (Homo sapiens, UniProt Q969V1, Q117A); assay: IP-One IP1 accumulation assay, MCHR2 Q117A; conditions: n = 3 in triplicate
T21 construct: expressed in transfected cells; host or cells: AD293
Excerpt: as §3, §5, §4

[1] = AD293, IP-One HTRF, 37 °C 1 h, mean ± S.E.M., P < 0.0001 vs WT

T16 sequence (Q969V1 whole entry L89A): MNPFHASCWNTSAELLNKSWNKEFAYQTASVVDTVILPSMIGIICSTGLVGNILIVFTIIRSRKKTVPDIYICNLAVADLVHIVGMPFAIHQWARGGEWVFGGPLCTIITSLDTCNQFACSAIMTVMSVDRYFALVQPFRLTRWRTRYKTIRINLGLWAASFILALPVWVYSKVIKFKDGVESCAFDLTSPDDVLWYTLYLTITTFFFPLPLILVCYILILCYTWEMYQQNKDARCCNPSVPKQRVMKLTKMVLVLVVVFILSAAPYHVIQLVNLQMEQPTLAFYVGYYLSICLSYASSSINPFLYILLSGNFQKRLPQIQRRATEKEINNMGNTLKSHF
T15 sequence (Q969V1 whole entry): as the sequence (Q969V1 whole entry L89A) above, with A89L counted along it
T21 sequence (Q969V1 whole entry Q117A): as the sequence (Q969V1 whole entry L89A) above, with A89L, Q117A counted along it
T20 sequence (Q969V1 whole entry D113A): as the sequence (Q969V1 whole entry L89A) above, with A89L, D113A counted along it
T18 sequence (Q969V1 whole entry W93A): as the sequence (Q969V1 whole entry L89A) above, with A89L, W93A counted along it
T17 sequence (Q969V1 whole entry Q92A): as the sequence (Q969V1 whole entry L89A) above, with A89L, Q92A counted along it
T19 sequence (Q969V1 whole entry G96A): as the sequence (Q969V1 whole entry L89A) above, with A89L, G96A counted along it
T7 sequence (Q99705 whole entry I185A): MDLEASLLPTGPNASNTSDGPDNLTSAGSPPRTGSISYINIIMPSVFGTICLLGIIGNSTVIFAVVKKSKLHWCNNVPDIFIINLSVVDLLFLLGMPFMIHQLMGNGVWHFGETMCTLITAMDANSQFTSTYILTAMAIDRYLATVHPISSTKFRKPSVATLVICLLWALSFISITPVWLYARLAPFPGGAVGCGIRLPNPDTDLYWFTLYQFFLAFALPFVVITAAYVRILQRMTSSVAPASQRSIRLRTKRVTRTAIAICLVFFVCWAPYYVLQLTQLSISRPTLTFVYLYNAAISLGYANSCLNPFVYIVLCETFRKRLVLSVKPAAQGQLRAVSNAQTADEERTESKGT
T13 sequence (Q99705 whole entry I297A): as the sequence (Q99705 whole entry I185A) above, with A185I, I297A counted along it
T4 sequence (Q99705 whole entry L103A): as the sequence (Q99705 whole entry I185A) above, with L103A, A185I counted along it
T9 sequence (Q99705 whole entry I196A): as the sequence (Q99705 whole entry I185A) above, with A185I, I196A counted along it
T12 sequence (Q99705 whole entry Y293A): as the sequence (Q99705 whole entry I185A) above, with A185I, Y293A counted along it
T11 sequence (Q99705 whole entry P285A): as the sequence (Q99705 whole entry I185A) above, with A185I, P285A counted along it
T14 sequence (Q99705 whole entry Y301A): as the sequence (Q99705 whole entry I185A) above, with A185I, Y301A counted along it
T1 sequence (Q99705 whole entry): as the sequence (Q99705 whole entry I185A) above, with A185I counted along it
T8 sequence (Q99705 whole entry F187A): as the sequence (Q99705 whole entry I185A) above, with A185I, F187A counted along it
T3 sequence (Q99705 whole entry Q102A): as the sequence (Q99705 whole entry I185A) above, with Q102A, A185I counted along it
T10 sequence (Q99705 whole entry Y272A): as the sequence (Q99705 whole entry I185A) above, with A185I, Y272A counted along it
T2 sequence (Q99705 whole entry F92A): as the sequence (Q99705 whole entry I185A) above, with F92A, A185I counted along it
T5 sequence (Q99705 whole entry D123A): as the sequence (Q99705 whole entry I185A) above, with D123A, A185I counted along it
T6 sequence (Q99705 whole entry Q127A): as the sequence (Q99705 whole entry I185A) above, with Q127A, A185I counted along it

CSCC[C@@H]1NC(=O)[C@@H](NC(=O)[C@H](CCCNC(=N)N)NC(=O)[C@H](CC(C)C)NC(=O)[C@H](CCSC)NC(=O)[C@H](CC(=O)O)NC(=O)[C@H](Cc2ccccc2)NC(=O)[C@@H](N)CC(=O)O)CSSC[C@@H](C(=O)N[C@@H](Cc2c[nH]c3ccccc23)C(=O)N[C@@H](CCC(N)=O)C(=O)N[C@H](C(=O)O)C(C)C)NC(=O)[C@@H]2CCCN2C(=O)[C@H](CCCNC(=N)N)NC(=O)[C@H](Cc2ccc(O)cc2)NC(=O)[C@H](C(C)C)NC(=O)[C@H](CCCNC(=N)N)NC(=O)CNC(=O)[C@H](CC(C)C)NC1=O [MCH, Melanin-concentrating hormone]
Emax (MCHR1 WT): 100% | Emax (MCHR1 F161(2.53)A): 124 ± 1% | Emax (MCHR1 Q171(2.63)A): 57 ± 6% | Emax (MCHR1 L172(2.64)A): 107 ± 3% | Emax (MCHR1 D192(3.32)A): 40 ± 7% | Emax (MCHR1 Q196(3.36)A): 97 ± 1% | Emax (MCHR1 I254(ECL2)A): 98 ± 3% | Emax (MCHR1 F256(ECL2)A): 106 ± 2% | Emax (MCHR1 I265(45.52)A): 88 ± 3% | Emax (MCHR1 Y341(6.51)A): 97 ± 1% | Emax (MCHR1 P354(ECL3)A): 109 ± 1% | Emax (MCHR1 Y362(7.35)A): 95% | Emax (MCHR1 I366(7.39)A): 90 ± 5% | Emax (MCHR1 Y370(7.42)A): -21 ± 4% | EC50 (MCHR2 WT; 37 °C 1 h, three independent experiments in triplicate): 3.16 nM | Emax (MCHR2 WT; normalized by WT receptor, n = 3 in triplicate): 100% | EC50 (MCHR2 L89(2.60)A; AD293, IP-One HTRF, 37 °C 1 h, mean ± S.E.M., P 0.1322 vs WT): 9.12 nM | Emax (MCHR2 L89(2.60)A; AD293, mean ± S.E.M.): 104 ± 2% | EC50 (MCHR2 Q92(2.63)A; [1]): 9120 nM | Emax (MCHR2 Q92(2.63)A; AD293, mean ± S.E.M.): 25 ± 2% | EC50 (MCHR2 W93(2.64)A; [1]): 6030 nM | Emax (MCHR2 W93(2.64)A; AD293, mean ± S.E.M.): 91 ± 1% | EC50 (MCHR2 G96(ECL1)A; AD293, IP-One HTRF, 37 °C 1 h, mean ± S.E.M., P 0.0012 vs WT): 15.5 nM | Emax (MCHR2 G96(ECL1)A; AD293, mean ± S.E.M.): 96% | EC50 (MCHR2 D113(3.32)A; [1]): 2040 nM | Emax (MCHR2 D113(3.32)A; AD293, mean ± S.E.M.): 101 ± 2% | EC50 (MCHR2 Q117(3.36)A; AD293, IP-One HTRF, 37 °C 1 h, mean ± S.E.M., P 0.0352 vs WT): 10.7 nM | Emax (MCHR2 Q117(3.36)A; AD293, mean ± S.E.M.): 96 ± 2%
